From ChEMBL document CHEMBL4002588, “2,4-Disubstituted quinazolines as amyloid-β aggregation inhibitors with dual cholinesterase inhibition and antioxidant properties: Development and structure-activity relationship (SAR) studies” (Eur J Med Chem, 2017)
The source made the active and inactive calls. The rule behind the calls is not given here.

Experiments:
Acetylcholinesterase = Acetylcholinesterase (Homo sapiens, UniProt P22303)
Description: Inhibition of human AChE using acetylthiocholine iodide as substrate preincubated for 5 mins followed by substrate addition measured for 60 to 300 secs by Ellman's method

Cholinesterase [1] = molecular target: T1, Cholinesterase (Homo sapiens, UniProt P06276)
T1 sequence (P06276 whole entry, the tested form may be a part): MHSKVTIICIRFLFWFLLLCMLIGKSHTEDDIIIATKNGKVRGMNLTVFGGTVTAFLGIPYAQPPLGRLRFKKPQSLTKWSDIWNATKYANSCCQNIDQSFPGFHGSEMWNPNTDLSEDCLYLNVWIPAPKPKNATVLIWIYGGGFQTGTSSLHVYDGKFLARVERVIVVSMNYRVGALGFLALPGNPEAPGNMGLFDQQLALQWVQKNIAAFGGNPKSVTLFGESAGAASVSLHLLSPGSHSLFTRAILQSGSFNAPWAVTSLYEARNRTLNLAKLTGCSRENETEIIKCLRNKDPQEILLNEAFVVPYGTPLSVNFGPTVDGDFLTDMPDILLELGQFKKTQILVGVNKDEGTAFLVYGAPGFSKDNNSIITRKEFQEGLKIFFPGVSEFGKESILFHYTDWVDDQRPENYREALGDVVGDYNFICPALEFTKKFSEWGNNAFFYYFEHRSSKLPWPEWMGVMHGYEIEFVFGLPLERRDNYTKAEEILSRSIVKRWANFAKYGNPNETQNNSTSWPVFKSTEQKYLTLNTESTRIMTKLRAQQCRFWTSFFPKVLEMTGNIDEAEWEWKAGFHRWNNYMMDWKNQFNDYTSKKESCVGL
Description: Inhibition of human BuChE using S-butyrylthiocholine iodide as substrate preincubated for 5 mins followed by substrate addition measured for 60 to 300 secs by Ellman's method

[2] = molecular target: T2, Amyloid-beta precursor protein (Homo sapiens, UniProt P05067); test: Inhibition of HFIP-induced human recombinant amyloid beta (1 to 42 residues) aggregation expressed in Escherichia coli at 25 uM measured over 24 hrs by ThT-based fluorescence spectroscopic method relative to control
T2 sequence (P05067 whole entry, the tested form may be a part): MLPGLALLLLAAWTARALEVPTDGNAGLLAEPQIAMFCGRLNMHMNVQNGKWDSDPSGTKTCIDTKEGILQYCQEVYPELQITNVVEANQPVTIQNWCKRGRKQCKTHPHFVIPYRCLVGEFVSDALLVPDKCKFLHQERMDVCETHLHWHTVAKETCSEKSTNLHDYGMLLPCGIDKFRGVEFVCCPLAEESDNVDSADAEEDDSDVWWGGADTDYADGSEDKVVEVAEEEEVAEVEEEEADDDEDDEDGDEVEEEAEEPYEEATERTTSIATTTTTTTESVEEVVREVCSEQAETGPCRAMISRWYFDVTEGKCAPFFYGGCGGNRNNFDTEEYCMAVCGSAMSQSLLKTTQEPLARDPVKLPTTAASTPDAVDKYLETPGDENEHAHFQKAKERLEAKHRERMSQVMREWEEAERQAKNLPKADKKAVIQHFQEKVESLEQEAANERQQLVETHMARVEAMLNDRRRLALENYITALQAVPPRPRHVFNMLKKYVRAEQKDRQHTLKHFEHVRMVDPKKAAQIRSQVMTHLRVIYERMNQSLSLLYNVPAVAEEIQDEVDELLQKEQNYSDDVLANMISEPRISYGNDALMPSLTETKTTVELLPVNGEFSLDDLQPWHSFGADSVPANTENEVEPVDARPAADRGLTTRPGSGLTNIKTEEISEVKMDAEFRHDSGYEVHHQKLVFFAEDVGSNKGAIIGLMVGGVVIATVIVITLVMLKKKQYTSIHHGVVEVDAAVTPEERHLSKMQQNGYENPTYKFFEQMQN

[3] = molecular target: T2, Amyloid-beta precursor protein; test: Inhibition of HFIP-induced human recombinant amyloid beta (1 to 40 residues) aggregation expressed in Escherichia coli at 25 uM measured over 24 hrs by ThT-based fluorescence spectroscopic method relative to control
[4] = molecular target: T2, Amyloid-beta precursor protein
Description: Inhibition of HFIP-induced human recombinant amyloid beta (1 to 40 residues) aggregation expressed in Escherichia coli measured over 24 hrs by ThT-based fluorescence spectroscopic method

[5] = molecular target: T2, Amyloid-beta precursor protein; test: Inhibition of HFIP-induced human recombinant amyloid beta (1 to 40 residues) aggregation expressed in Escherichia coli assessed as reduction in amyloid beta fibril load measured after 24 hrs by ThT fluorescence assay
[6] = molecular target: T2, Amyloid-beta precursor protein; test: Inhibition of HFIP-induced human recombinant amyloid beta (1 to 40 residues) aggregation expressed in Escherichia coli assessed as reduction in amyloid beta fibril load at 25 uM after 24 hrs by transmission electron microscopic method
[7] = molecular target: T2, Amyloid-beta precursor protein; test: Inhibition of HFIP-induced human recombinant amyloid beta (1 to 42 residues) aggregation expressed in Escherichia coli assessed as reduction in amyloid beta fibril load measured after 24 hrs by ThT fluorescence assay
[8] = molecular target: T2, Amyloid-beta precursor protein; remark: listed apart in the source
Description: Inhibition of HFIP-induced human recombinant amyloid beta (1 to 42 residues) aggregation expressed in Escherichia coli measured over 24 hrs by ThT-based fluorescence spectroscopic method

[9] = molecular target: T2, Amyloid-beta precursor protein; test: Inhibition of HFIP-induced human recombinant amyloid beta (1 to 42 residues) aggregation expressed in Escherichia coli assessed as reduction in amyloid beta fibril load at 25 uM after 24 hrs by transmission electron microscopic method
[10] = molecular target: T2, Amyloid-beta precursor protein; test: Potency index, ratio of curcumin IC50 to test compound IC50 for HFIP-induced human recombinant amyloid beta (1 to 40 residues) aggregation
[11] = molecular target: T2, Amyloid-beta precursor protein; test: Potency index, ratio of resveratrol IC50 to test compound IC50 for HFIP-induced human recombinant amyloid beta (1 to 42 residues) aggregation
[12] = Antioxidant activity assessed as DPPH radical scavenging activity at 50 uM relative to control; assay type: functional
[13] = molecular target: T2, Amyloid-beta precursor protein; test: Potency index, ratio of curcumin IC50 to test compound IC50 for HFIP-induced human recombinant amyloid beta (1 to 42 residues) aggregation
Cholinesterase [14] = molecular target: T1, Cholinesterase; test: Potency index, ratio of donepezil IC50 to test compound IC50 for human BuChE
[15] = Potency index, ratio of test compound to resveratrol antioxidant activity assessed as DPPH radical scavenging activity

Acetylcholinesterase, sequence (P22303 whole entry): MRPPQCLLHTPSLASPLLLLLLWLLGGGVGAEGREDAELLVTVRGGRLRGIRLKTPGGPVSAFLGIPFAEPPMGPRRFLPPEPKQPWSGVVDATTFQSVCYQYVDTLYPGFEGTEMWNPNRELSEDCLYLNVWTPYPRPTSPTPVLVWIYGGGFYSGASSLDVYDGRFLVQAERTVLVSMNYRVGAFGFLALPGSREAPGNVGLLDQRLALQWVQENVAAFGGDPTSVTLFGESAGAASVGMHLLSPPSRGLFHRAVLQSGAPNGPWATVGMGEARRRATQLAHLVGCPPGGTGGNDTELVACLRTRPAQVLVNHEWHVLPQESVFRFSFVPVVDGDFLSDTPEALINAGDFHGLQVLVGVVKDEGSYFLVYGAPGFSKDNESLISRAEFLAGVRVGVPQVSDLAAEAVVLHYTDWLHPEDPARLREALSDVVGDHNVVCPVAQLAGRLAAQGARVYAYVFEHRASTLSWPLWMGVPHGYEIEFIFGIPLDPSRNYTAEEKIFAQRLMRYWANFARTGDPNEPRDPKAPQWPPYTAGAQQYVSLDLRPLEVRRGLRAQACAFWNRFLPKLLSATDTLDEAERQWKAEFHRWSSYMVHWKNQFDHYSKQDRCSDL

Row | SMILES | IC50 (Acetylcholinesterase) | IC50 (Cholinesterase [1]) | inhibition [2] | inhibition [3] | IC50 [4] | further results
1 | CNc1nc(NCc2ccc(OC)c(OC)c2)c2ccccc2n1 | 7.3 µM | 30.5 µM | – | – | – | –
2 | CCCNc1nc(NCCc2ccc(OC)c(OC)c2)c2ccccc2n1 | 7 µM | 24.9 µM | 14% | > 50% | 4.3 µM | –
3 | COc1ccc(CNc2nc(NC(C)=O)nc3ccccc23)cc1OC | 8.5 µM | > 50 µM | < 10% | > 50% | 3.1 µM | –
4 | CCNc1nc(NCCc2ccccc2)c2ccccc2n1 | 7.6 µM | 3.2 µM | 47% | > 50% | 1.4 µM | inhibition [5]: Dose-dependent effect; inhibition [6]: Active
5 | COc1ccc(CCNc2nc(Cl)nc3ccccc23)cc1OC | – | – | – | > 50% | 8.2 µM | inhibition [7]: Dose-dependent effect; IC50 [8]: 13 µM; inhibition [9]: Active
6 | CCCNc1nc(NCc2ccc(OC)c(OC)c2)c2ccccc2n1 | 5.6 µM | 30.4 µM | inactive | > 50% | 1.7 µM | –
7 | Nc1nc(NCc2ccccc2)c2ccccc2n1 | – | – | < 10% | > 50% | – | –
8 | COc1ccc(CCNc2nc(NC(C)C)nc3ccccc23)cc1OC | 7.6 µM | 7.8 µM | – | – | – | –
9 | c1ccc(CNc2nc(NC3CC3)nc3ccccc23)cc1 | 6.6 µM | 22 µM | 31% | > 50% | 5.7 µM | –
10 | COc1ccc(CNc2nc(NC(N)=O)nc3ccccc23)cc1OC | 8.6 µM | > 50 µM | 40% | > 50% | 8.3 µM | –
11 | c1ccc(CCNc2nc(NC3CC3)nc3ccccc23)cc1 | 8.6 µM | 11.4 µM | 22% | > 50% | 0.79 µM | Ratio IC50 [10]: 4.1; inhibition [5]: Dose-dependent effect; inhibition [6]: Active
12 | CC(C)Nc1nc(NCc2ccccc2)c2ccccc2n1 | 6.4 µM | 11.7 µM | 13% | > 50% | 4.4 µM | –
13 | CCCNc1nc(NCCc2ccccc2)c2ccccc2n1 | 7.2 µM | 5 µM | 33% | > 50% | 4.4 µM | –
14 | NC(=O)Nc1nc(NCCc2ccccc2)c2ccccc2n1 | 7.9 µM | > 50 µM | 46% | > 50% | 1 µM | inhibition [5]: Dose-dependent effect; inhibition [6]: Active
15 | [N-]=[N+]=Nc1nc(NCc2ccccc2)c2ccccc2n1 | – | – | 37% | > 50% | 2.6 µM | –
16 | COc1ccc(CCNc2ncnc3ccccc23)cc1OC | – | – | 36% | > 50% | 12 µM | –
17 | Clc1nc(NCCc2ccccc2)c2ccccc2n1 | – | – | 36% | > 50% | 5 µM | –
18 | CNc1nc(NCc2ccccc2)c2ccccc2n1 | 8 µM | 18.8 µM | – | – | – | –
19 | COc1ccc(CNc2nc(NC(C)C)nc3ccccc23)cc1OC | 6.8 µM | 29.8 µM | – | – | – | –
20 | COc1ccc(CCNc2nc(NC(C)=O)nc3ccccc23)cc1OC | 7.4 µM | > 50 µM | – | – | – | –
21 | Nc1nc(NCc2ccccc2)nc2ccccc12 | – | – | – | > 50% | – | Ratio IC50 [11]: 1.8; inhibition [7]: Dose-dependent effect; Ratio IC50 [10]: 1.2 to 1.4; inhibition [9]: Active
22 | Clc1nc(NCc2ccccc2)c2ccccc2n1 | – | – | 22% | > 50% | 16.7 µM | –
23 | COc1ccc(CCNc2nc(N)nc3ccccc23)cc1OC | – | – | 45% | > 50% | 2.7 µM | –
24 | CC(=O)Nc1nc(NCc2ccccc2)c2ccccc2n1 | 7.5 µM | > 50 µM | 31% | > 50% | 1.9 µM | –
25 | COc1ccc(CNc2nc(N)nc3ccccc23)cc1OC | – | – | 34% | > 50% | 8.4 µM | –
26 | COc1ccc(CNc2nc(NC3CC3)nc3ccccc23)cc1OC | 7.2 µM | 29.8 µM | 20% | > 50% | 8.3 µM | –

Row | SMILES | IC50 (Acetylcholinesterase) | IC50 (Cholinesterase [1]) | inhibition [2] | inhibition [3] | IC50 [4] | further results
27 | Oc1nc(NCc2ccccc2)c2ccccc2n1 | – | – | 24% | > 50% | 0.27 µM | Activity [12]: 47%; Ratio IC50 [13]: 12; Ratio IC50 [11]: 4; inhibition [5]: Dose-dependent effect; inhibition [6]: Active
28 | NC(=O)Cc1nc(NCCc2ccccc2)c2ccccc2n1 | 7.3 µM | 3.5 µM | – | – | – | –
29 | COc1ccc(CNc2nc(NC3CCN(Cc4ccccc4)CC3)nc3ccccc23)cc1OC | – | – | 27% | > 50% | 2.3 µM | Ratio IC50 [10]: 1.3
30 | Oc1nc(NCCc2ccccc2)c2ccccc2n1 | – | – | inactive | > 50% | 11.2 µM | Activity [12]: 51.5%
31 | COc1ccc(CCNc2nc(CC(N)=O)nc3ccccc23)cc1OC | 12.5 µM | > 50 µM | – | – | – | –
32 | CC(=O)Nc1nc(NCCc2ccccc2)c2ccccc2n1 | 7 µM | > 50 µM | – | – | – | –
33 | CCNc1nc(NCc2ccccc2)c2ccccc2n1 | 7.5 µM | 15.2 µM | 24% | > 50% | 7 µM | –
34 | CC(C)Nc1nc(NCCc2ccccc2)c2ccccc2n1 | 7.2 µM | 1.6 µM | inactive | > 50% | 3.8 µM | Ratio IC50 (Cholinesterase [14]): 2.3
35 | Oc1ccc(/C=C/c2cc(O)cc(O)c2)cc1 | – | – | – | – | – | Activity [12]: 41.9%
36 | c1ccc(CCNc2ncnc3ccccc23)cc1 | – | – | 32% | > 50% | 11.9 µM | –
37 | COc1ccc(CCNc2nc(NC(N)=O)nc3ccccc23)cc1OC | 8.7 µM | > 50 µM | 33% | > 50% | 14.4 µM | –
38 | COc1ccc(CCNc2nc(O)nc3ccccc23)cc1OC | – | – | 32% | > 50% | 10.4 µM | Activity [12]: 33.9%
39 | Cc1c(C)c2c(c(C)c1O)CCC(C)(C(=O)O)O2 (configuration not stated) | – | – | – | – | – | Activity [12]: 99.6%
40 | CCNc1nc(NCc2ccc(OC)c(OC)c2)c2ccccc2n1 | 6.3 µM | 25 µM | – | – | – | –
41 | CNc1nc(NCCc2ccc(OC)c(OC)c2)c2ccccc2n1 | 8.5 µM | 4.5 µM | 23.1% | > 50% | 6.6 µM | inhibition [7]: Dose-dependent effect; inhibition [9]: Active
42 | CCCNc1nc(NCc2ccccc2)c2ccccc2n1 | 7.8 µM | 14.4 µM | 26% | > 50% | 5 µM | –
43 | CNc1nc(NCCc2ccccc2)c2ccccc2n1 | 8.7 µM | 5 µM | 40% | > 50% | 2 µM | –
44 | CCNc1nc(NCCc2ccc(OC)c(OC)c2)c2ccccc2n1 | 7.5 µM | 14 µM | 41% | > 50% | 2.9 µM | –
45 | NC(=O)Nc1nc(NCc2ccccc2)c2ccccc2n1 | 8.3 µM | > 50 µM | 48% | > 50% | 13.3 µM | –
46 | COc1ccc(CNc2nc(O)nc3ccccc23)cc1OC | – | – | < 10% | > 50% | 7.8 µM | Activity [12]: 63.4%; Ratio [15]: 1.5
47 | Nc1nc(NCCc2ccccc2)nc2ccccc12 | – | – | 50% | > 50% | – | Ratio IC50 (Cholinesterase [14]): 1.5; inhibition [7]: Dose-dependent effect; inhibition [9]: Active
48 | COc1ccc(CCNc2nc(NC3CC3)nc3ccccc23)cc1OC | 7.2 µM | 5.6 µM | 25% | > 50% | 4.9 µM | –
49 | Nc1nc(NCCc2ccccc2)c2ccccc2n1 | – | – | 37% | > 50% | – | –
50 | COc1ccc(CNc2nc(CC(N)=O)nc3ccccc23)cc1OC | 7.4 µM | > 50 µM | – | – | – | –
51 | COc1ccc(CNc2nc(N=[N+]=[N-])nc3ccccc23)cc1OC | – | – | < 10% | > 50% | 7.2 µM | –
52 | NC(=O)Cc1nc(NCc2ccccc2)c2ccccc2n1 | 7.2 µM | > 50 µM | – | – | – | –
